Assay results as given in patent publication US20090142370A1, “Method for preventing skin-cellular aging by using green algae extract and cosmetic composition containing green algae extract” (priority 2007, published 2009).

Experiments:
Type in all cases: cell-based
MMP [1] = assay: UVB-induced MMP in fibroblasts, quantified (FIG. 5); details: no UV about 3.5, UV alone about 6.0 ng/mL
Method: (§1) The experiments are conducted under two kinds of conditions, wherein one uses phorbol 12-myristate 13-acetate (PMA) to induce skin-cells to produce MMP while the other uses UVB to induce skin-cells to produce MMP and the inhibitory effects of the green algae extract of the present invention on MMP produced under both conditions are tested.

MMP [2] = assay: PMA-induced MMP production in fibroblasts, quantified (FIG. 1); details: 5-hour incubation, control about 25, PMA alone about 70 ng/mL
Method: as §1
As known by those skilled in the art, PMA is an activator of protein kinase C (PKC) in fibroblasts, and PKC is an activator of MMP. Further, unduly activated MMP can break collagens as well as elastins in fibroblasts and in turn lead to aged skin. In the experiment shown in FIG. 1, Rectangle (1) belongs to a control group; Rectangle (2) belongs to a comparison group; and Rectangles (3), (4), (5) and (6) belong to an experimental group. A 5-hour incubation is conducted in each of the groups.

MMP [3] = assay: PMA-induced MMP in fibroblasts, Western blotting (FIG. 2); details: 100 nM PMA + 0.4 nM GM
Text: The images in the upper picture represent MMP expressions while the images in the lower picture are provided as a house keeping gene expressed protein.

MMP3 = assay: PMA-induced gene expression in fibroblasts, RT-PCR (FIG. 4); details: 100 nM PMA + 0.4 nM GM
Text: (§2) The […] inhibitor proteins TIMP1 and TIMP3 exist in fibroblasts to counterbalance metalloproteinases MMP1 and MMP3.

TIMP3 = assay: as above; details: 100 nM PMA + 0.4 nM GM
Text: as §2

TIMP1 = assay: as above; details: 100 nM PMA + 0.4 nM GM
Text: as §2

Compound: O=C1O[C@H]([C@@H](O)CO)C(O)=C1O [Vitamin C]
- average content of MMP (MMP [1]; 0.15 mM Vitamin C added before 1.5 hours UV): 9.0 ng/mL
- average content of MMP (MMP [2]; 100 nM PMA + 0.15 nM Vitamin C): about 60 ng/mL

Compound: Vitamin E
- average content of MMP (MMP [1]; 25 uM Vitamin E added before 1.5 hours UV): 6.0 ng/mL

Compound: CNC(=O)[C@H](Cc1c[nH]c2ccccc12)NC(=O)[C@@H](CC(=O)NO)CC(C)C [GM]
- MMP activity (Western blot) compared with PMA alone (MMP [3]): slightly inhibits
- average content of MMP (MMP [2]; 100 nM PMA + 0.4 nM GM): about 50 ng/mL
- MMP3 mRNA expression (RT-PCR) compared with PMA alone (MMP3): less
- TIMP3 genetic expression (RT-PCR) compared with PMA alone (TIMP3): fails to significantly enhance
- TIMP1 genetic expression (RT-PCR) compared with PMA alone (TIMP1): fails to significantly enhance
